According to patent publication US6495591B1, “Fungal efflux pump inhibitors” (Essential Therapeutics, Inc., priority 1997, dated 2002):
Read-outs that look alike come from different tables or passages of the source.

Assays:
[1] = target: pFLU (MF) efflux pump in S. cerevisiae YEM-38 (Candida albicans, UniProt G1UB37); experiment: cell-based; assay type: cell-based, C. albicans; conditions: for FEPIhalf (concentration needed to reduce activity of efflux pump by 50%): YEM-38 pFLU, fluconazole fixed at FLUhalf 2
pFLU (MF) efflux pump in S. cerevisiae YEM-38, sequence (G1UB37 whole entry): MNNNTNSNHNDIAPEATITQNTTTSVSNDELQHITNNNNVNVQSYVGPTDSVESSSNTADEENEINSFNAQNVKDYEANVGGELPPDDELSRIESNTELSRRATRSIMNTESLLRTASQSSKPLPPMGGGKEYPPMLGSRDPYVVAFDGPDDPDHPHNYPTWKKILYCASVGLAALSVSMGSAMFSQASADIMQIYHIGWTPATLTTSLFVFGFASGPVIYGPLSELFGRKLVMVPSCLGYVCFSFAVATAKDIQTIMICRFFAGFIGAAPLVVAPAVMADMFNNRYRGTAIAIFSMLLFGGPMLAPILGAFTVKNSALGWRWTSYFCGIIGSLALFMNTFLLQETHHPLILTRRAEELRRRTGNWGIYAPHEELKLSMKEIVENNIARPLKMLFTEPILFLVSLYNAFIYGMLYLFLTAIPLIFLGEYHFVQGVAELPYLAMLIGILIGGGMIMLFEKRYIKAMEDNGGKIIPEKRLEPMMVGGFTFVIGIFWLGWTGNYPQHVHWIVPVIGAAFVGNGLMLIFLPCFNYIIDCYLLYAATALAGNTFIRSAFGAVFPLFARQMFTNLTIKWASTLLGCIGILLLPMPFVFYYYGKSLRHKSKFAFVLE

[2] = tested on: YEM 30 C. albicans wt; experiment: FEPI MIC with/without 1/8 fluconazole MIC at 24 hrs (Table 11); assay type: cell-based
[3] = target: pCgCDR (ABC) efflux pump in S. cerevisiae YEM-39 (Candida glabrata, UniProt Q6FK23); experiment: cell-based; assay type: cell-based, C. glabrata; conditions: for FEPIhalf (concentration needed to reduce activity of efflux pump by 50%): YEM-39 pCgCDR, fluconazole fixed at FLUhalf 4
pCgCDR (ABC) efflux pump in S. cerevisiae YEM-39, sequence (Q6FK23 whole entry): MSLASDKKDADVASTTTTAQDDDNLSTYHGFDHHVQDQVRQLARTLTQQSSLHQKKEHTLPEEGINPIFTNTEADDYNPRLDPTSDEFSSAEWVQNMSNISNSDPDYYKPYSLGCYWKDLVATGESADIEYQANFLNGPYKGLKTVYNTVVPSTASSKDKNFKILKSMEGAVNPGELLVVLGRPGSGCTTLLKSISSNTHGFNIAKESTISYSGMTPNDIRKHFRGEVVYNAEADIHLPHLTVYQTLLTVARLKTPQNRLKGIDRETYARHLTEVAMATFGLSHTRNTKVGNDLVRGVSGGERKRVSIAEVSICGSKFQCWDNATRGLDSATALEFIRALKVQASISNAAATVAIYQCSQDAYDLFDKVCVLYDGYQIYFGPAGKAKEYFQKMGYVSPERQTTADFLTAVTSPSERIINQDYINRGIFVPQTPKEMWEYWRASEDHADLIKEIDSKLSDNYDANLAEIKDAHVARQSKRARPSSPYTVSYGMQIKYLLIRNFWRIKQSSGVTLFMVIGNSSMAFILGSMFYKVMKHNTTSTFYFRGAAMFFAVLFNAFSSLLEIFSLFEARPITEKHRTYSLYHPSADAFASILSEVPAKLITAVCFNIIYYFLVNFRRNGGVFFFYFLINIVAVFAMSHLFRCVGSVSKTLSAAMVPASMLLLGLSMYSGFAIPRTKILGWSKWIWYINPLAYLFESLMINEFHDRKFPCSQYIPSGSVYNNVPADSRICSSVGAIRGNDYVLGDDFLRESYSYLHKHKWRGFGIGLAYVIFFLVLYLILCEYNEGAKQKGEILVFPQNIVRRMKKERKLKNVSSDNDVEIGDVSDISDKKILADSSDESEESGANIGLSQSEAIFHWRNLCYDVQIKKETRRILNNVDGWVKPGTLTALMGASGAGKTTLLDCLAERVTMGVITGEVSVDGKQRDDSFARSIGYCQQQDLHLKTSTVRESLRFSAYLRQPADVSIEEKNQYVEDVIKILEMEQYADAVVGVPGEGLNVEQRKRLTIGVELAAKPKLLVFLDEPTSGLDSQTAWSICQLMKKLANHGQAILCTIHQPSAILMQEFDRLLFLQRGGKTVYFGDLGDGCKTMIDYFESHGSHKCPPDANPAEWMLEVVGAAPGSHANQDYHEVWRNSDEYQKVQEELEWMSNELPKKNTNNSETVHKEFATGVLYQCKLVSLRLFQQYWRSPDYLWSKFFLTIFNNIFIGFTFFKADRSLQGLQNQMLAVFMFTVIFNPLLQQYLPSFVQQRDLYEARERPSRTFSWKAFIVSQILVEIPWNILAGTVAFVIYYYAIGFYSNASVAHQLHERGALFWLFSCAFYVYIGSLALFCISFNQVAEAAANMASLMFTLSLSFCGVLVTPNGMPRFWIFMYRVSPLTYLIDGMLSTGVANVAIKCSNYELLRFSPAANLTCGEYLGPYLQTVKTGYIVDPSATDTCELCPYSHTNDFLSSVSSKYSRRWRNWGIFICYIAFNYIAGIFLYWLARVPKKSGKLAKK

[4] = tested on: YEM 13 C. albicans BEN up; experiment: microbe, parasite or virus in culture; assay type: cell-based; conditions: YEM 13, 24 hrs, 80% inhibition; for MIC of compound in the presence of fluconazole (+): 1/8 × MIC of fluconazole
[5] = tested on: YEM 27 C. albicans ΔCDR1ΔCDR2 ΔBENΔFLU1; experiment: microbe, parasite or virus in culture; assay type: cell-based; conditions: YEM 27, 24 hrs, 80% inhibition; for MIC of compound in the presence of fluconazole (+): 1/8 × MIC of fluconazole
[6] = target: pCDR2 (ABC) efflux pump in S. cerevisiae YEM-37 (Candida albicans, UniProt P78595); experiment: cell-based; assay type: cell-based, C. albicans; conditions: for FEPIhalf (concentration needed to reduce activity of efflux pump by 50%): YEM-37 pCDR2, fluconazole fixed at FLUhalf 1
pCDR2 (ABC) efflux pump in S. cerevisiae YEM-37, sequence (P78595 whole entry): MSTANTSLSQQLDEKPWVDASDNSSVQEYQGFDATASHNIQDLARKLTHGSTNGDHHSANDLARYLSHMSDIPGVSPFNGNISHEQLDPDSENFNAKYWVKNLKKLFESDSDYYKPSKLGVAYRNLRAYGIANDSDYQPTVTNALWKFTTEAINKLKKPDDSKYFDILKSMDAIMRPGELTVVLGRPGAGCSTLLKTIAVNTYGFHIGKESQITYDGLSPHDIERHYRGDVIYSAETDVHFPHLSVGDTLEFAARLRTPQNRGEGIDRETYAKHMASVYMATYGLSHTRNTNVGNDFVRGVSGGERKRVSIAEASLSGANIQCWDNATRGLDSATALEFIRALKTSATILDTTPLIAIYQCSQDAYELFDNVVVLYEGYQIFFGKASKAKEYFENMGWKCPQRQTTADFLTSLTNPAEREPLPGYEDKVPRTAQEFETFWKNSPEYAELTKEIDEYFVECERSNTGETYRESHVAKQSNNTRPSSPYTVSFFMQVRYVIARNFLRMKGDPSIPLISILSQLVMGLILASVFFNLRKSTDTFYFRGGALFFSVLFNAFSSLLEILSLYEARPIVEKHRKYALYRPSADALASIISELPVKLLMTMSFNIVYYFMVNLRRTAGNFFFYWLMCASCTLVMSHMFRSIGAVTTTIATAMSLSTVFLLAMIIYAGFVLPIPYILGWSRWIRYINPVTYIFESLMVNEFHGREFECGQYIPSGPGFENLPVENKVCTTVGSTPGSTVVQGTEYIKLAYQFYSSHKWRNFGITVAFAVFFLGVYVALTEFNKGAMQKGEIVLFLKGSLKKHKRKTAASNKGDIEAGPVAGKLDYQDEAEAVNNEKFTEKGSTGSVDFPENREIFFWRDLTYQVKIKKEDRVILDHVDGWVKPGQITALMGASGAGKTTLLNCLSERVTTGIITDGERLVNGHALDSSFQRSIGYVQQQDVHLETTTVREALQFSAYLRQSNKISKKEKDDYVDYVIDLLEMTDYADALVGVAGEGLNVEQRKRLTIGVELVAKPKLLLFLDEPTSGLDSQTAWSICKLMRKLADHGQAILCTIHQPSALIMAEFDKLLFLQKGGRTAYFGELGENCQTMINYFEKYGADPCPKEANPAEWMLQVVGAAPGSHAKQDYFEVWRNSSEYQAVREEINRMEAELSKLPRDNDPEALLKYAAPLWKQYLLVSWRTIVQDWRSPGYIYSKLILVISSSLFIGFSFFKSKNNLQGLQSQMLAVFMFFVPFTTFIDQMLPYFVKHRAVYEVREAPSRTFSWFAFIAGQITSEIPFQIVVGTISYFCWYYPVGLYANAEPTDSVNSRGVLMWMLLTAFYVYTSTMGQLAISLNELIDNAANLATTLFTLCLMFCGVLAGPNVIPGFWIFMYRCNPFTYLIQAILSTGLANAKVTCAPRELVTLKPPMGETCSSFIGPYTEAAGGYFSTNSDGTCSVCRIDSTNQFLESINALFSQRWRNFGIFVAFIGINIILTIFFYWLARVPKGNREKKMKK

[7] = tested on: YEM 51 C. glabrata wt; experiment: FEPI MIC with/without 1/8 fluconazole MIC at 24 hrs (Table 11); assay type: cell-based
[8] = tested on: YEM 17 C. glabrata, CgCDR up; assay type: cell-based; conditions: 24 hrs, 80% inhibition; for MIC of compound in the presence of fluconazole (+): 1/8 × MIC of fluconazole
[9] = tested on: Aspergillus fumigatus; experiment: FEPI MICs in combination with 1/4 the azole's MIC (Table 12); assay type: cell-based; set-up: FEPI MIC (alone): unit not given here; conditions: for FEPI MIC with itraconazole, 60% Inh / FEPI MIC with itraconazole, 80% Inh: itraconazole 0.063 μg/ml (1/4 MIC); for FEPI MIC with ketoconazole, 60% Inh / FEPI MIC with ketoconazole, 80% Inh: ketoconazole 4 μg/ml (1/4 MIC); for FEPI MIC (alone): no azole, 35° C., CM Broth
Procedure: The combinations were tested against a series of Candida strain with known expression of efflux pumps or with complete deletion of all known pumps and Aspergillus fumigatus. Results are reported as minimum inhibitory concentration (MIC) of […] in the presence or absence of […]. A total of 27 distinct milbemycins were studied.

[10] = target: pCDRI (ABC) efflux pump in S. cerevisiae YEM-1 (Candida albicans, UniProt P43071); experiment: cell-based; assay type: cell-based, C. albicans; conditions: for FEPIhalf (concentration needed to reduce activity of efflux pump by 50%): YEM-1 pCDRI, fluconazole fixed at FLUhalf 5.6
[11] = tested on: YEM 15 C. albicans, CDR1CDR2 up; experiment: microbe, parasite or virus in culture; assay type: cell-based; conditions: YEM 15, 24 hrs, 80% inhibition; for MIC of compound in the presence of fluconazole (+): 1/8 × MIC of fluconazole
[12] = tested on: YEM 24 C. albicans ΔCDR1, ΔCDR2; experiment: microbe, parasite or virus in culture; assay type: cell-based; conditions: YEM 24, 24 hrs, 80% inhibition; for MIC of compound in the presence of fluconazole (+): 1/8 × MIC of fluconazole
[13] = tested on: pCgBEN (MF) efflux pump in S. cerevisiae YEM-40; assay type: cell-based, C. glabrata
[14] = tested on: YEM 53 C. krusei; experiment: FEPI MIC with/without 1/8 fluconazole MIC at 24 hrs (Table 11); assay type: cell-based
[15] = target: pBEN (MF) efflux pump in S. cerevisiae YEM-2 (Candida albicans, UniProt P28873); experiment: cell-based; assay type: cell-based, C. albicans; conditions: for FEPIhalf (concentration needed to reduce activity of efflux pump by 50%): YEM-2 pBEN, fluconazole fixed at FLUhalf 5.6
pBEN (MF) efflux pump in S. cerevisiae YEM-2, sequence (P28873 whole entry): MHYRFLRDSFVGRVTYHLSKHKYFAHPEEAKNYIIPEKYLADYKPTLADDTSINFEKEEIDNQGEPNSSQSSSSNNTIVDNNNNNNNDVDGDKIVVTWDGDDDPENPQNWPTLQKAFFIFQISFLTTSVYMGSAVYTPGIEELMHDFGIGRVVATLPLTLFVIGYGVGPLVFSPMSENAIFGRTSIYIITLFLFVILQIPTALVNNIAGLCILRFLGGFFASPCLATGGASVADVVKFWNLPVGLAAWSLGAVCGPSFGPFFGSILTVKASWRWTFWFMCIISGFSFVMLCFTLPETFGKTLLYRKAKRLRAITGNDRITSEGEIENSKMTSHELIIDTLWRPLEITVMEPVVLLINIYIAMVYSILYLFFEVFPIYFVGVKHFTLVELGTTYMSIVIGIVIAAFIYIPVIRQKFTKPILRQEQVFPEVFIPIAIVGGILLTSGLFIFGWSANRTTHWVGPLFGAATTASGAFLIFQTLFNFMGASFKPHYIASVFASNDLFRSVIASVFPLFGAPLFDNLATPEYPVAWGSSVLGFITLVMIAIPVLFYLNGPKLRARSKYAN

[16] = YEM 30, 1/8 × MIC of fluconazole, 24 hrs, 80% inhibition
[17] = YEM 51, 1/8 × MIC of fluconazole, 24 hrs, 80% inhibition
[18] = fluconazole 32 μg/ml (1/4 MIC), 60% inhibition
[19] = fluconazole 32 μg/ml (1/4 MIC), 80% inhibition
[20] = YEM 53, 1/8 × MIC of fluconazole, 24 hrs, 80% inhibition
[21] = YEM-40 pCgBEN, fluconazole fixed at FLUhalf 2.8

Row | Compound | MIC of compound in the absence of fluconazole (−) ([2]; YEM 30, 24 hrs, 80% inhibition) | MIC of compound in the presence of fluconazole (+) [4] | MIC of compound in the absence of fluconazole (−) [4] | MIC of compound in the presence of fluconazole (+) [5] | MIC of compound in the absence of fluconazole (−) [5] | MIC of compound in the absence of fluconazole (−) ([7]; YEM 51, 24 hrs, 80% inhibition) | MIC of compound in the presence of fluconazole (+) [8] | MIC of compound in the absence of fluconazole (−) [8] | FEPI MIC with itraconazole, 60% Inh ([9]; 60% inhibition) | FEPI MIC with itraconazole, 80% Inh ([9]; 80% inhibition) | FEPI MIC with ketoconazole, 60% Inh ([9]; 60% inhibition) | FEPI MIC with ketoconazole, 80% Inh ([9]; 80% inhibition) | FEPI MIC (alone) ([9]; 80% inhibition) | MIC of compound in the presence of fluconazole (+) [11] | MIC of compound in the absence of fluconazole (−) [11] | MIC of compound in the presence of fluconazole (+) [12] | MIC of compound in the absence of fluconazole (−) [12] | MIC of compound in the absence of fluconazole (−) ([14]; YEM 53, 24 hrs, 80% inhibition) | MIC of compound in the presence of fluconazole (+) [2] | IC50 [3] | also measured
1 | 5-Keto-8-deoxymilbemycin β1 [Compound 22] | > 64 µg/mL | > 64 µg/mL | > 64 µg/mL | > 64 µg/mL | > 64 µg/mL | > 64 µg/mL | > 64 µg/mL | > 64 µg/mL | >64 | >64 | ≦0.063 | ≦0.063 | >64 | ≦0.03 | > 64 µg/mL | > 64 µg/mL | > 64 µg/mL | > 64 µg/mL |  |  | FEPIhalf (concentration needed to reduce activity of efflux pump by 50%) [1]: >64; MIC of compound in the presence of fluconazole (+) [2, 16]: ≦0.03; FEPIhalf (concentration needed to reduce activity of efflux pump by 50%) [3]: 64; FEPIhalf (concentration needed to reduce activity of efflux pump by 50%) [6]: 1; MIC of compound in the presence of fluconazole (+) [7, 17]: > 64 µg/mL; FEPI MIC with fluconazole, 60% Inh [9, 18]: >64; FEPI MIC with fluconazole, 80% Inh [9, 19]: >64; FEPIhalf (concentration needed to reduce activity of efflux pump by 50%) [10]: <0.06; FEPIhalf (concentration needed to reduce activity of efflux pump by 50%) [13]: >64; MIC of compound in the presence of fluconazole (+) [14, 20]: 8 µg/mL; FEPIhalf (concentration needed to reduce activity of efflux pump by 50%) [15]: >64
2 | CC1=C[C@H]2C(=O)O[C@H]3C[C@@H](C/C=C(\C)C[C@@H](C)/C=C/C=C4\CO[C@H]([C@@H]1O)[C@@]42O)O[C@@]1(CC[C@H](C)[C@@H](C)O1)C3 [Compound 3, Milbemycin α1] | > 64 µg/mL | 32 µg/mL | > 64 µg/mL | 8 µg/mL | 8 µg/mL | > 64 µg/mL | 4 µg/mL | > 64 µg/mL | 8 | 16 | ≦0.063 | ≦0.063 | >64 | ≦0.03 | > 64 µg/mL | > 64 µg/mL | > 64 µg/mL | > 64 µg/mL | ≦0.03 | 15.1 µM | IC50 [6]: 473 nM; MIC of compound in the presence of fluconazole (+) [7]: 16 µg/mL; FEPI MIC with fluconazole, 60% Inh [9]: 2; FEPI MIC with fluconazole, 80% Inh [9]: >64; IC50 [10]: < 113 nM; FEPIhalf (concentration needed to reduce activity of efflux pump by 50%) [13, 21]: 32; MIC of compound in the presence of fluconazole (+) [14]: 0.06 µg/mL; IC50 [15]: 30.3 µM
3 | CO[C@@H]1C(C)=C[C@H]2C(=O)O[C@H]3C[C@@H](C/C=C(\C)C[C@@H](C)/C=C/C=C4\CO[C@H]1[C@@]42O)O[C@@]1(CC[C@H](C)[C@@H](C)O1)C3 [Compound 4, Milbemycin α2] | > 64 µg/mL | > 64 µg/mL | > 64 µg/mL | 64 µg/mL | > 64 µg/mL | > 64 µg/mL | 2 µg/mL | > 64 µg/mL | 2 | >64 | 0.5 | 0.5 | >64 | ≦0.03 | > 64 µg/mL | > 64 µg/mL | > 64 µg/mL | > 64 µg/mL | ≦0.03 | 7.37 µM | IC50 [1]: > 118 µM; IC50 [6]: 461 nM; MIC of compound in the presence of fluconazole (+) [7]: 4 µg/mL; FEPI MIC with fluconazole, 60% Inh [9]: 1; FEPI MIC with fluconazole, 80% Inh [9]: >64; IC50 [10]: 230 nM; FEPIhalf (concentration needed to reduce activity of efflux pump by 50%) [13, 21]: >64; MIC of compound in the presence of fluconazole (+) [14]: 8 µg/mL; IC50 [15]: > 118 µM
4 | CC[C@H]1O[C@]2(CC[C@@H]1C)C[C@@H]1C[C@@H](C/C=C(\C)C[C@@H](C)/C=C/C=C3\CO[C@@H]4[C@H](O)C(C)=C[C@@H](C(=O)O1)[C@]34O)O2 [Compound 7, Milbemycin α3] | > 64 µg/mL | > 64 µg/mL | > 64 µg/mL | > 64 µg/mL | > 64 µg/mL | > 64 µg/mL | > 64 µg/mL | > 64 µg/mL | >64 | >64 | ≦0.063 | ≦0.063 | >64 | 0.125 µg/mL | > 64 µg/mL | > 64 µg/mL | > 64 µg/mL | > 64 µg/mL | ≦0.03 | 29.5 µM | IC50 [1]: > 118 µM; IC50 [6]: 14700 nM; MIC of compound in the presence of fluconazole (+) [7]: > 64 µg/mL; FEPI MIC with fluconazole, 60% Inh [9]: >64; FEPI MIC with fluconazole, 80% Inh [9]: >64; IC50 [10]: 921 nM; FEPIhalf (concentration needed to reduce activity of efflux pump by 50%) [13, 21]: >64; MIC of compound in the presence of fluconazole (+) [14]: 16 µg/mL; IC50 [15]: 29.5 µM
5 | CCCCC(C)C(=O)OC1C(C)C(C)OC2(CC3CC(C/C=C(\C)CC(C)/C=C/C=C4\COC5C(O)C(C)=CC(C(=O)O3)C45O)O2)C1O (stereo not drawn) [Compound 8, Milbemycin α5] | > 64 µg/mL | > 64 µg/mL | > 64 µg/mL | > 64 µg/mL | > 64 µg/mL | > 64 µg/mL | 2 µg/mL | > 64 µg/mL | 1 | 8 | ≦0.063 | ≦0.063 | >64 | 0.125 µg/mL | > 64 µg/mL | > 64 µg/mL | > 64 µg/mL | > 64 µg/mL |  |  | FEPIhalf (concentration needed to reduce activity of efflux pump by 50%) [1]: >64; MIC of compound in the presence of fluconazole (+) [2, 16]: ≦0.03; FEPIhalf (concentration needed to reduce activity of efflux pump by 50%) [3]: 8; FEPIhalf (concentration needed to reduce activity of efflux pump by 50%) [6]: 2; MIC of compound in the presence of fluconazole (+) [7, 17]: 8 µg/mL; FEPI MIC with fluconazole, 60% Inh [9, 18]: 1; FEPI MIC with fluconazole, 80% Inh [9, 19]: >64; FEPIhalf (concentration needed to reduce activity of efflux pump by 50%) [10]: 0.5; FEPIhalf (concentration needed to reduce activity of efflux pump by 50%) [13]: >64; MIC of compound in the presence of fluconazole (+) [14, 20]: 32 µg/mL; FEPIhalf (concentration needed to reduce activity of efflux pump by 50%) [15]: 16
